4 compounds from patent publication US10729680B2, “5-substituted 2-(morpholin-4-yl)-1,7-naphthyridines” (BAYER PHARMA AKTIENGESELLSCHAFT, priority 2016, dated 2020) can be followed below.

In test [1] the target is full-length human ATR protein (ATR/ATRIP) (Homo sapiens (Human), UniProt Q13535). Kind of test: Binding Assay ATR (TR-FRET, tracer A displacement). To be noted: displacement of fluorescent tracer A from GST-ATR/ATRIP. Put shortly: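 GST-tagged full-length human ATR co-purified with ATRIP, 4.2 nM stock working solution, pre-complexed 30 min with 4.2 nM anti-GST-Tb in HEPES pH 7.0/MgCl2/DTT buffer. Compound pre-bound 10 min, then tracer A (100 nM solution) added for 30 min at 22 °C. 570/545 nm TR-FRET ratio; 11 concentrations 20 μM-0.1 nM; IC50 by 4-parameter fit.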
full-length human ATR protein (ATR/ATRIP), sequence (Q13535 other isoform, or with tags, fused parts or gaps): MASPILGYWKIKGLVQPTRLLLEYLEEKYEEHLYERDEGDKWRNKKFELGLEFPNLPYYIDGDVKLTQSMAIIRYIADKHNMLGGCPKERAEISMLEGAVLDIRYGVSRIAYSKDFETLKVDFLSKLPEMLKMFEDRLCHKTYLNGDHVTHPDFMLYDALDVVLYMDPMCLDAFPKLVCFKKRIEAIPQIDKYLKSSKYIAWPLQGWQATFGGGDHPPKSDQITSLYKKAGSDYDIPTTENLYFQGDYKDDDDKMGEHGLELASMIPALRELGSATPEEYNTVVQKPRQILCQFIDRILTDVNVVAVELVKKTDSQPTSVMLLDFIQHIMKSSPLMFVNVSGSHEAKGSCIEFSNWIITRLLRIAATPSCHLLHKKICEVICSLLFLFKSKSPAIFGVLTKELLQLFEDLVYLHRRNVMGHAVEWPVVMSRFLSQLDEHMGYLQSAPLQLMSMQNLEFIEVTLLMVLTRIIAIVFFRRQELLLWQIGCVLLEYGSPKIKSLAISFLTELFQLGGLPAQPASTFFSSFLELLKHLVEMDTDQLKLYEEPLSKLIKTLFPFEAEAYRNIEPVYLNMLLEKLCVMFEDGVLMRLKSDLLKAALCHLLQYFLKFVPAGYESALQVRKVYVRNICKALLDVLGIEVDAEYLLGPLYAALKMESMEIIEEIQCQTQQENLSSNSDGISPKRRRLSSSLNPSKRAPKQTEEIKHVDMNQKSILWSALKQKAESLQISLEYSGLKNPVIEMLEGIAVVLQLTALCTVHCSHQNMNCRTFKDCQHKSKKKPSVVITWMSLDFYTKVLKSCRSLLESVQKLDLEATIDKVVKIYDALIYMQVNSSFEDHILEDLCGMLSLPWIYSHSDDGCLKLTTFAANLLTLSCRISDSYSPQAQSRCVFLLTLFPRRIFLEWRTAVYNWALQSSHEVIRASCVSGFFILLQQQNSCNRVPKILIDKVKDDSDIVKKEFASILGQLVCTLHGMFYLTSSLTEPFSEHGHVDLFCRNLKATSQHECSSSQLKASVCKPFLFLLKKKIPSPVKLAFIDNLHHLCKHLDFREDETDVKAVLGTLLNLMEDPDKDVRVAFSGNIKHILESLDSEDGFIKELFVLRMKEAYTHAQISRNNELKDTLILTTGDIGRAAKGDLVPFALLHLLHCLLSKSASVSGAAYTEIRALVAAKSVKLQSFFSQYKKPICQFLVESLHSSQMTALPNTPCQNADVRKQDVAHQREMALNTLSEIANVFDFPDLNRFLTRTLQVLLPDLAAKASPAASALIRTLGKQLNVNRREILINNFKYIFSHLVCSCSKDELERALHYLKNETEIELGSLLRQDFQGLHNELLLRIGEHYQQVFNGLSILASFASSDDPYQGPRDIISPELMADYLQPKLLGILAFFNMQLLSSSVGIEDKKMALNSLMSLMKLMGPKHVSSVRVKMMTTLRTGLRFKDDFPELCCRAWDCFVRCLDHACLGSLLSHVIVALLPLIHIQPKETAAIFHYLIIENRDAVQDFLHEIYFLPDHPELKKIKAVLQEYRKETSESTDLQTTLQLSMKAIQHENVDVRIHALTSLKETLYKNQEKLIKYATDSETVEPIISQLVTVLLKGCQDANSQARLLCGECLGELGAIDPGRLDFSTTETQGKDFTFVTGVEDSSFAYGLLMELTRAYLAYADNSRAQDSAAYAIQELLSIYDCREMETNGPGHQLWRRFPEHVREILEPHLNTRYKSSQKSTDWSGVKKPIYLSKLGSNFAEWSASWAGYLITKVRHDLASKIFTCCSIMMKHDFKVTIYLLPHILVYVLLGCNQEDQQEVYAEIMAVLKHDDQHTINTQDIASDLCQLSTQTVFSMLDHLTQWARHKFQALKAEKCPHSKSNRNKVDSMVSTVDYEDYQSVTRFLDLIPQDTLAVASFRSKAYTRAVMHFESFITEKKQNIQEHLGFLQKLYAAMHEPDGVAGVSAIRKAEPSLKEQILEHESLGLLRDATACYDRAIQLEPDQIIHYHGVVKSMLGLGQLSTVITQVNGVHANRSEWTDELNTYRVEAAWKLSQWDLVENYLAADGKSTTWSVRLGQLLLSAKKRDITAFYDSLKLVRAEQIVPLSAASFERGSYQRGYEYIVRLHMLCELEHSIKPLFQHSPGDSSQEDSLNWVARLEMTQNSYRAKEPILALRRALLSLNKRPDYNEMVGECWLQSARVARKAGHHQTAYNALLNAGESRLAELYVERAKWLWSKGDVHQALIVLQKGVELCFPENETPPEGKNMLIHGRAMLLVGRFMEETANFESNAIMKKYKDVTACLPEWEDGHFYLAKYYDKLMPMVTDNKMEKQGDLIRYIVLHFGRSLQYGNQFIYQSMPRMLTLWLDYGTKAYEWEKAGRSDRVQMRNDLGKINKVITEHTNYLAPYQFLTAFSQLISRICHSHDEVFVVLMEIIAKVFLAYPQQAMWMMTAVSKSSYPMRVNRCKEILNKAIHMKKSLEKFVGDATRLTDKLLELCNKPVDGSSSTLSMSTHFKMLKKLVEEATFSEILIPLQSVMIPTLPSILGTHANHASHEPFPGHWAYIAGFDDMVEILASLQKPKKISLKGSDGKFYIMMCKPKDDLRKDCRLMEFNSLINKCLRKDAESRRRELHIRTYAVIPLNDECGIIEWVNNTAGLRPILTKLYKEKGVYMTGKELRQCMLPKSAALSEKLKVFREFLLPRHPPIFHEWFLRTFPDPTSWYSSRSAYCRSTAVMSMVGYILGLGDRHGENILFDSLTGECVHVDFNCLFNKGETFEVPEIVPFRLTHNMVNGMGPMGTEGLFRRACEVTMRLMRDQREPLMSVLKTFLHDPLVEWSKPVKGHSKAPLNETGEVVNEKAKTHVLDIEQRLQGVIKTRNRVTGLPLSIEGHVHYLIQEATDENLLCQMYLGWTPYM
full-length human ATR protein (ATR/ATRIP), sequence (Q8WXE1 other isoform, or with tags, fused parts or gaps partner): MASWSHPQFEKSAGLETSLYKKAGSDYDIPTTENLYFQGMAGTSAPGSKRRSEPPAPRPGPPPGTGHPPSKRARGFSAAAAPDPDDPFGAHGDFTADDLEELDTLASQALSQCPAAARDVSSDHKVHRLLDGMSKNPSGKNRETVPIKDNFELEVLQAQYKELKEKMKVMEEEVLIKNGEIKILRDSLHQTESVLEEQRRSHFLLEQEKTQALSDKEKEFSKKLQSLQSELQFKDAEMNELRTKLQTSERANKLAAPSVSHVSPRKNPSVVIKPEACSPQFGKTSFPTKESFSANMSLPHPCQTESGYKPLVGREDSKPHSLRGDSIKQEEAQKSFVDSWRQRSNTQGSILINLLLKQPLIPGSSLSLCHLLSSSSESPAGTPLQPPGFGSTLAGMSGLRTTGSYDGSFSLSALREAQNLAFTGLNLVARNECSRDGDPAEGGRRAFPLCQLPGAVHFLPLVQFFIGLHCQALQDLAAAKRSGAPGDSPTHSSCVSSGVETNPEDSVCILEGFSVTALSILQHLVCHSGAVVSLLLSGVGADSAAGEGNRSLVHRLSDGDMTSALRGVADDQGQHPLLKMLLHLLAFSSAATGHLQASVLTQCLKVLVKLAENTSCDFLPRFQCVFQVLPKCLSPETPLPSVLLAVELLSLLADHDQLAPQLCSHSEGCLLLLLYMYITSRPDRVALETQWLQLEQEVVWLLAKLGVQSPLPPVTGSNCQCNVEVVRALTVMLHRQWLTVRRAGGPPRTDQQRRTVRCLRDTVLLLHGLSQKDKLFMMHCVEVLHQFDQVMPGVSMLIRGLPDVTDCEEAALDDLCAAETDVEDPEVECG
(In general: TR-FRET usually uses a lanthanide donor and a delayed reading to cut background.)

A further test concerns HeLa cells. Kind of test: Proliferation assay (HeLa, crystal violet). The test is classed as cell-based. To be noted: Homo sapiens, 96 h, 4 days incubation, crystal violet staining, read-out: Inhibition of HeLa cell proliferation. The protocol: Human tumour cells were originally obtained from the American Type Culture Collection (ATCC), the Deutsche Sammlung von Mikroorganismen und Zellkulturen (DSMZ, German Collection of Microorganisms and Cell Cultures) or Epo GmbH, Berlin.
Adherently growing cells (HeLa, HeLa-MaTu-ADR, HT-144, Lovo, HT-29, NCI-H460, DU145, Caco2, B16F10) were plated out in a density of 1500-4000 cells/measurement point, depending on the rate of growth of the cell line, in a 96-well multititre plate in 200 μl of growth medium (DMEM/HAMS F12, 2 mM L-glutamine, 10% foetal calf serum). After 24 hours, the cells of one plate (zero plate) were dyed with crystal violet (see below), whereas the medium of the other plates was replaced with fresh culture medium (200 μl) to which the test substances were added in various concentrations (0 μM, and also in the range of 0.001-10 μM; the final concentration of the solvent dimethyl sulphoxide was 0.1 or 0.5%). The cells were incubated for 4 days in the presence of the test substances. Cell proliferation was determined by staining the cells with crystal violet: the cells were fixed at room temperature for 15 min by adding 20 μl/measurement point of an 11% strength glutaraldehyde solution. After washing the fixed cells three times with water, the plates were dried at room temperature. The cells were stained by adding 100 μl/measurement point of a 0.1% strength crystal violet solution (pH adjusted to pH 3 by adding acetic acid). After washing the cells three times with water, the plates were dried at room temperature. The dye was dissolved by adding 100 μl/measurement point of a 10% strength acetic acid solution. Absorbance was determined photometrically at a wavelength of 595 nm. The percentage change in cell growth was calculated by normalizing the measured values to the absorbance values of the zero plate (=0%) and the absorbance of the untreated (0 μM) cells (=100%). The IC50 values were determined by means of a four parameter fit.
Inhibition of proliferation of HeLa cells by compounds according to the present invention, determined as described above. All IC50 (inhibitory concentration at 50% of maximal effect) values are indicated in M, “n.t.” means that the compounds have not been tested in the respective assay.

`Cc1cnc(-c2ccn[nH]2)c2nc(N3CCOC[C@H]3C)cc(N(C)CC(C)(C)C)c12` [Example 13, N-(2,2-dimethylpropyl)-N,5-dimethyl-2-[(3R)-3-methylmorpholin-4-yl]-8-(1H-pyrazol-5-yl)-1,7-naphthyridin-4-amine]: the IC50 turned out to be 4.93 nM in test [1] and 745 nM in the test with HeLa cells.

Consider `Cc1cnc(-c2ccn[nH]2)c2nc(N3CCOC[C@H]3C)cc(OC(C)C)c12` [Example 1, 5-methyl-2-[(3R)-3-methylmorpholin-4-yl]-4-(propan-2-yloxy)-8-(1H-pyrazol-5-yl)-1,7-naphthyridine], for which the IC50 is 25.9 nM in test [1] and 498 nM in the test on HeLa cells.

With `Cc1cnc(-c2ccn[nH]2)c2nc(N3CCOC[C@H]3C)cc(-c3cnc(Cl)n3C)c12` [Example 5, 4-(2-chloro-1-methyl-1H-imidazol-5-yl)-5-methyl-2-[(3R)-3-methylmorpholin-4-yl]-8-(1H-pyrazol-5-yl)-1,7-naphthyridine], the IC50 turned out to be 5.07 nM in test [1] and 85.1 nM in the test on HeLa cells.

`Cc1nc(S(C)(=O)=O)ccc1-c1cc(N2CCOC[C@H]2C)nc2c(-c3ccn[nH]3)ncc(C)c12` [Example 4, 5-methyl-4-[2-methyl-6-(methylsulfonyl)pyridin-3-yl]-2-[(3R)-3-methylmorpholin-4-yl]-8-(1H-pyrazol-5-yl)-1,7-naphthyridine]: the IC50 in test [1] worked out at 37.3 nM; in the test on HeLa cells, 333 nM.
